Experiment [1] concerns aortic valve interstitial cells. Briefly: BMP2-treated aortic valve interstitial cells with or without Ataciguat for 24 hours (pVASP239, Sp7). The format is cell-based. As to conditions: in vitro. The procedure: Overexpression of DDAH1 reduces endogenous inhibitors of NOS, increases NO production, and increases sGC signaling, ultimately resulting in slower progression of CAVS.
To determine whether induction of sGC signaling reduced osteogenic signaling in vitro, aortic valve interstitial cells were treated with BMP2 in the presence or absence of Ataciguat (HMR1766, 5-Chloro-2-[[(5-chloro-2-thienyl)sulfonyl]amino]-N-[4-(4-morpholinylsulfonyl)phenyl]benzamide) for 24 hours.

Experiment [2] has the same test system. In words: Western blotting of BMP, TGFβ and sGC signaling in valve interstitial cells treated with BMP2, TGFβ1 or vehicle, with or without Ataciguat, for 18 hours. The format is cell-based, human and mouse. As to conditions: Ataciguat 1 μmol, 37° C. The protocol: FIG. 4 is a graph plotting p-VASP^239 levels detected in aortic valve interstitial cells treated with BMP2 (100 ng/mL), TGFβ1 (10 ng/mL), or neither (control; CTRL) in the presence or absence of Ataciguat (1 μmol) for 18 hours at 37° C.
FIG. 5 is a graph plotting p-Smad1/5/8 levels detected in aortic valve interstitial cells treated with BMP2 (100 ng/mL), TGFβ1 (10 ng/mL), or neither (control; CTRL) in the presence or absence of Ataciguat (1 μmol) for 18 hours at 37° C.
FIG. 6 is a graph plotting Sp7 levels detected in aortic valve interstitial cells treated with BMP2 […], or neither (control; CTRL) in the presence or absence of Ataciguat (1 μmol) for 18 hours at 37° C.
FIG. 7 is a graph plotting p-Smad2 levels detected in aortic valve interstitial cells treated with BMP2 […], or neither (control; CTRL) in the presence or absence of Ataciguat (1 μmol) for 18 hours at 37° C.
Additional experiments were performed to confirm that Ataciguat activates sGC signaling, attenuates BMP2 signaling, attenuates BMP2 target induction, and attenuates fibrogenic signaling in valve interstitial cells. In brief, cells were maintained in Dulbecco's Modified Eagle's Medium (DMEM) with 20% fetal bovine serum (FBS) and expanded to confluence in 6 well plates in a standard 5% CO2 incubator at 37° C. Cells were then treated with BMP2 (100 ng/mL), TGFβ1 (10 ng/mL), or vehicle (phosphate buffered saline) in the absence or presence of Ataciguat (1 μmol) for 18 hours. Cells were lysed using standard protein lysis buffer containing protease and phosphatase inhibitors, and Western blotting was performed to evaluate changes in protein levels of BMP, TGFβ, and sGC signaling.

SMILES strings stand for the structures. “Also recorded” adds a separate entry of the source.

In the case of `O=C(Nc1ccc(S(=O)(=O)N2CCOCC2)cc1)c1cc(Cl)ccc1NS(=O)(=O)c1ccc(Cl)s1` [Ataciguat, 5-Chloro-2-[[(5-chloro-2-thienyl)sulfonyl]amino]-N-[4-(4-morpholinylsulfonyl)phenyl]benzamide], the “sGC signaling (indicated by pVASP239 levels)” value in experiment [1] (FIG. 2A) is reported as “activated sGC signaling”. Besides, in experiment [1] (FIG. 2B), the “osteogenic signaling (BMP2-induced Sp7 expression)” value is “profoundly suppressed osteogenic signaling”. For the same molecule, the “sGC signaling (p-VASP239 levels)” value in experiment [2] (BMP2 100 ng/mL, TGFβ1 10 ng/mL or control, FIG. 4, replicated in human (HAV-001, HAV-002, HAV-003) and mouse (MAV1, MAV2, MAV4) cell lines) is reported as “effectively activated sGC signaling”. For the same molecule, the “BMP2 signaling (p-Smad1/5/8 levels)” value in experiment [2] (BMP2 100 ng/mL, TGFβ1 10 ng/mL or control, FIG. 5, replicated in human and mouse cell lines) is recorded as “attenuated canonical BMP2 signaling”. The “BMP2 target induction (Sp7 levels)” value in experiment [2] (BMP2, TGFβ1 or control, FIG. 6, replicated in human and mouse cell lines) was “attenuated BMP target induction; also recorded: attenuated BMP2 target induction”. Further, the “fibrogenic signaling (p-Smad2 levels)” value in experiment [2] (BMP2, TGFβ1 or control, FIG. 7, replicated in human and mouse cell lines) is “partially attenuated fibrogenic signaling”.
